Source: the RepoRT retention time repository

Test: HILIC, Waters ACQUITY UPLC BEH Amide, 100 × 2.1 mm, 1.7 µm; A: water + 0.125% formic acid + 10 mM ammonium formate; B: 5% water + 95% acetonitrile + 0.125% formic acid + 10 mM ammonium formate; gradient (min/%B) 0/100 2/100 7.7/70 9.5/40 10.25/30 12.75/100 17/100
Conditions: stereoisomer not certain

Row | SMILES | LC retention time [min]
1 | COc1ccc(C2CNC(=O)C2)cc1OC1CCCC1 (stereo unspecified) [Rolipram] | 1.12
2 | CCCN1CCCCC1C(=O)Nc1c(C)cccc1C (stereo unspecified) [Ropivacaine] | 2.49
3 | CN1CCN(c2c(F)cc3c(=O)c(C(=O)O)cn4c3c2SCC4)CC1 [Rufloxacin] | 4.65
4 | CC1OC(OCC2OC(Oc3c(-c4ccc(O)c(O)c4)oc4cc(O)cc(O)c4c3=O)C(O)C(O)C2O)C(O)C(O)C1O (stereo unspecified) [Rutin] | 6.6
5 | Nc1ncnc2c1ncn2C1OC(CSCCC(N)C(=O)O)C(O)C1O (stereo unspecified) [S-Adenosyl-homocysteine] | 8.85
6 | C[S+](CCC(N)C(=O)[O-])CC1OC(n2cnc3c(N)ncnc32)C(O)C1O (stereo unspecified) [S-Adenosyl-methionine] | 9.7
7 | CN=C(NC)NCCCC(N)C(=O)O (stereo unspecified) [SDMA] | 8.49
8 | CNCC(=O)O [Sarcosine] | 7.82
9 | CN1C2CC(OC(=O)C(CO)c3ccccc3)CC1C1OC12 (stereo unspecified) [Scopolamine] | 3.75
10 | COc1cc2ccc(=O)oc2cc1O [Scopoletin] | 1.16
11 | Cc1ncc([N+](=O)[O-])n1CC(C)O (stereo unspecified) [Secnidazole] | 1.12
12 | C#CCN(C)C(C)Cc1ccccc1 (stereo unspecified) [Selegiline] | 1.5
13 | NC(CO)C(=O)O (stereo unspecified) [Serine] | 8.73
14 | NCCc1c[nH]c2ccc(O)cc12 [Serotonin] | 1.44
15 | CC(C)CC(N(C)C)C1(c2ccc(Cl)cc2)CCC1 (stereo unspecified) [Sibutramine] | 1.86
16 | COc1cc(C=CC(=O)O)cc(OC)c1O [Sinapic acid] | 1.41
17 | O=P(O)(O)OCC(O)C(O)C(O)C(O)CO (stereo unspecified) [Sorbitol-6-phosphate] | 9.75
18 | CC(C)NCC(O)c1ccc(NS(C)(=O)=O)cc1 (stereo unspecified) [Sotalol] | 4.87
19 | NCCCCNCCCN [Spermidine] | 6.98
20 | NCCCNCCCCNCCCN [Spermine] | 7.24

Row | SMILES | LC retention time [min]
21 | C[N+]1(C)CCCC1C(=O)[O-] (stereo unspecified) [Stachydrine] | 7.1
22 | CC12Cc3cn[nH]c3CC1CCC1C2CCC2(C)C1CCC2(C)O (stereo unspecified) [Stanozolol] | 1.19
23 | Cc1cn(C2C=CC(CO)O2)c(=O)[nH]c1=O (stereo unspecified) [Stavudine] | 1.62
24 | CCCCCCCCCCCCCCCCCC(=O)OC(CC(=O)[O-])C[N+](C)(C)C [Stearoyl-L-carnitine] | 2.96
25 | O=C(O)CCC(=O)O [Succinic acid] | 4.46
26 | OCC1OC(OC2(CO)OC(CO)C(O)C2O)C(O)C(O)C1O (stereo unspecified) [Sucrose] | 8.05
27 | CS(=O)CCCCN=C=S (stereo unspecified) [Sulforaphane] | 1.14
28 | CNCC(O)c1ccc(O)cc1 (stereo unspecified) [Synephrine] | 5.67
29 | COc1cc(-c2oc3cc(O)cc(O)c3c(=O)c2OC2OC(CO)C(O)C(O)C2O)cc(OC)c1O (stereo unspecified) [Syringetin-3-O-glucoside] | 4.32
30 | O=S(=O)(O)CCNC(CO)(CO)CO [TES] | 7.7
31 | C=CCC1C=C(C)CC(C)CC(OC)C2OC(O)(C(=O)C(=O)N3CCCCC3C(=O)OC(C(C)=CC3CCC(O)C(OC)C3)C(C)C(O)CC1=O)C(C)CC2OC (stereo unspecified) [Tacrolimus] | 1.07
32 | CN=C(N)NCCCC(N)C(=O)O (stereo unspecified) [Targinine] | 9.22
33 | NCCS(=O)(=O)O [Taurine] | 7.85
34 | CC(CCC(=O)NCCS(=O)(=O)O)C1CCC2C3C(O)CC4CC(O)CCC4(C)C3CC(O)C12C (stereo unspecified) [Taurocholic acid] | 6.12
35 | O=C1c2c(O)cc(O)cc2OC(c2ccc(O)c(O)c2)C1O (stereo unspecified) [Taxifolin] | 1.78
36 | O=c1[nH]c(=O)n(C2CCCO2)cc1F (stereo unspecified) [Tegafur] | 1.22
37 | CN1C(=O)C(O)N=C(c2ccccc2)c2cc(Cl)ccc21 (stereo unspecified) [Temazepam] | 1.15
38 | Cn1nnc2c(C(N)=O)ncn2c1=O [Temozolomide] | 1.33
39 | COc1cc2nc(N3CCN(C(=O)C4CCCO4)CC3)nc(N)c2cc1OC (stereo unspecified) [Terazosin] | 4.66
40 | CC12CCC(=O)C=C1CCC1C2CCC2(C)C(O)CCC12 (stereo unspecified) [Testosterone] | 1.05

Row | SMILES | LC retention time [min]
41 | CCNC(=O)CCC(N)C(=O)O (stereo unspecified) [Theanine] | 7.66
42 | Cn1c(=O)c2[nH]cnc2n(C)c1=O [Theophylline] | 1.54
43 | O=C(O)C1CSCN1 (stereo unspecified) [Thiazolidine-4-carboxylic acid] | 6.92
44 | N=c1ccc2nc3ccc(N)cc3sc-2c1 [Thionin] | 5.23
45 | CC(NC(=O)C(N)C(C)O)C(=O)O (stereo unspecified) [Thr-Ala] | 8.56
46 | OCC(O)C(O)CO (stereo unspecified) [Threitol] | 1.56
47 | Cc1cn(C2CC(O)C(CO)O2)c(=O)[nH]c1=O (stereo unspecified) [Thymidine] | 2.57
48 | Cc1ccc(C(C)C)c(O)c1 [Thymol] | 1.53
49 | C#CC1(O)CCC2C3C(C)CC4=C(CCC(=O)C4)C3CCC21C (stereo unspecified) [Tibolone] | 1
50 | CCS(=O)(=O)CCn1c([N+](=O)[O-])cnc1C [Tinidazole] | 1.04
51 | Cc1cccc(C)c1NC(=O)C(C)N (stereo unspecified) [Tocainide] | 4.97
52 | CC1(C)OC2COC3(COS(N)(=O)=O)OC(C)(C)OC3C2O1 (stereo unspecified) [Topiramate] | 1.1
53 | NC1CCN(c2nc3c(cc2F)c(=O)c(C(=O)O)cn3-c2ccc(F)cc2F)C1 (stereo unspecified) [Tosufloxacin] | 4.87
54 | COc1cccc(C2(O)CCCCC2CN(C)C)c1 (stereo unspecified) [Tramadol] | 2.52
55 | O=P(O)(O)OCC1OC(OC2OC(CO)C(O)C(O)C2O)C(O)C(O)C1O (stereo unspecified) [Trehalose-6-phosphate] | 9.72
56 | Cc1nnc2n1-c1ccc(Cl)cc1C(c1ccccc1Cl)=NC2 [Triazolam] | 1.3
57 | CSc1nc2cc(Oc3cccc(Cl)c3Cl)c(Cl)cc2[nH]1 [Triclabendazole] | 1.01
58 | CCC(COC(=O)c1cc(OC)c(OC)c(OC)c1)(c1ccccc1)N(C)C (stereo unspecified) [Trimebutine] | 1.47

Continued, values first:

Row | LC retention time [min] | SMILES
59 | 1.15 | CC(C)c1nc(CN(C)C(=O)NC(C(=O)NC(Cc2ccccc2)CC(O)C(Cc2ccccc2)NC(=O)OCc2cncs2)C(C)C)cs1 (stereo unspecified) [Ritonavir]
60 | 5.11 | CN(C)CCc1c[nH]c2ccc(Cn3cncn3)cc12 [Rizatriptan]
61 | 0.97 | CS(=O)(=O)c1ccc(C2=C(c3ccccc3)C(=O)OC2)cc1 [Rofecoxib]
62 | 1.24 | CN(CCOc1ccc(CC2SC(=O)NC2=O)cc1)c1ccccn1 (stereo unspecified) [Rosigltazone]
63 | 3.01 | CC(=O)OCC(=O)NCCCOc1cccc(CN2CCCCC2)c1 [Roxane]
64 | 4.48 | OCc1ccccc1OC1OC(CO)C(O)C(O)C1O (stereo unspecified) [Salicin]
65 | 4.75 | OCc1cc(C(O)CNCCCCCCOCCCCc2ccccc2)ccc1O (stereo unspecified) [Salmeterol]
66 | 2.85 | CC(C)(C)NC(=O)C1CC2CCCCC2CN1CC(O)C(Cc1ccccc1)NC(=O)C(CC(N)=O)NC(=O)c1ccc2ccccc2n1 (stereo unspecified) [Saquinavir]
67 | 2.74 | CNC1CCC(c2ccc(Cl)c(Cl)c2)c2ccccc21 (stereo unspecified) [Sertraline]
68 | 8.74 | C=Cc1ccccc1 [Styrene]
69 | 2.01 | O=C(O)c1cc(N=Nc2ccc(S(=O)(=O)Nc3ccccn3)cc2)ccc1O [Sulfasalazine]
70 | 4.31 | CNS(=O)(=O)Cc1ccc2[nH]cc(CCN(C)C)c2c1 [Sumatriptan]
71 | 1.35 | COc1cc(C(=O)O)cc(OC)c1O [Syringic acid]
72 | 3.86 | Nc1c2c(nc3ccccc13)CCCC2 [Tacrine]
73 | 1.19 | CN1CC(=O)N2C(Cc3c([nH]c4ccccc34)C2c2ccc3c(c2)OCO3)C1=O (stereo unspecified) [Taldalafil]
74 | 2.84 | CCCCCN=C(N)NN=Cc1c[nH]c2ccc(OC)cc12 [Tegaserod]
75 | 1.25 | CCCc1nc2c(C)cc(-c3nc4ccccc4n3C)cc2n1Cc1ccc(-c2ccccc2C(=O)O)cc1 [Telmisartan]

Row | LC retention time [min] | SMILES
76 | 1.33 | CN(CC=CC#CC(C)(C)C)Cc1cccc2ccccc12 [Terbinafine]
77 | 3.94 | Cc1ccsc1C(=CCCN1CCCC(C(=O)O)C1)c1sccc1C (stereo unspecified) [Tiagabine]
78 | 1.12 | Clc1ccccc1CN1CCc2sccc2C1 [Ticlopidine]
79 | 2.13 | Cc1ccc(O)c(C(CCN(C(C)C)C(C)C)c2ccccc2)c1 (stereo unspecified) [Tolterodine]
80 | 1.04 | CCCc1c(OCCCCc2nn[nH]n2)ccc(C(C)=O)c1O [Tomelukast]
81 | 5.72 | CCC1(O)C(=O)OCc2c1cc1n(c2=O)Cc2cc3c(CN(C)C)c(O)ccc3nc2-1 (stereo unspecified) [Topotecan]
82 | 1.29 | O=C(c1ccccc1)c1ccc2n1CCC2C(=O)O (stereo unspecified) [Toradol]
83 | 1.45 | Cc1cccc(Nc2ccncc2S(=O)(=O)NC(=O)NC(C)C)c1 [Torasemide]
84 | 1.89 | CN(C)CCOc1ccc(C(=C(CCCl)c2ccccc2)c2ccccc2)cc1 [Toremifene]
85 | 1.26 | COc1ccc(C=CC(=O)Nc2ccccc2C(=O)O)cc1OC [Tranilast]
86 | 2.38 | O=c1n(CCCN2CCN(c3cccc(Cl)c3)CC2)nc2ccccn12 [Trazodone]
87 | 1.51 | O=C(OC1C(Oc2ccccc2COC(=O)C2(O)C=CCCC2=O)OC(CO)C(O)C1O)c1ccccc1 (stereo unspecified) [Tremulacin]
88 | 2.15 | CN1CCN(CCCN2c3ccccc3Sc3ccc(C(F)(F)F)cc32)CC1 [Trifluoperazine]
89 | 1.13 | NC(=O)N1c2ccccc2CC(=O)c2ccccc21 [Trileptal]
90 | 2.25 | CC(CN(C)C)CN1c2ccccc2CCc2ccccc21 (stereo unspecified) [Trimipramine]
91 | 1.98 | CN(C)CCN(Cc1ccccc1)c1ccccn1 [Tripelennamine]
